This is an account of results in patent publication US8003649B2 (AstraZeneca AB, priority 2007, dated 2011).

Where only a bound is given, the exact number is not on record here.

This assay has as its target T1, Androgen Receptor (AR) (Homo sapiens, UniProt P10275, T878A).
T1 construct: cell based immuno-fluorescence assay using the LNCaP prostate epithelial cell line; endogenous in cells; host or cells: LNCaP clone FGC (ATCC CRL-1740)
T1 sequence (P10275 1-920 T878A): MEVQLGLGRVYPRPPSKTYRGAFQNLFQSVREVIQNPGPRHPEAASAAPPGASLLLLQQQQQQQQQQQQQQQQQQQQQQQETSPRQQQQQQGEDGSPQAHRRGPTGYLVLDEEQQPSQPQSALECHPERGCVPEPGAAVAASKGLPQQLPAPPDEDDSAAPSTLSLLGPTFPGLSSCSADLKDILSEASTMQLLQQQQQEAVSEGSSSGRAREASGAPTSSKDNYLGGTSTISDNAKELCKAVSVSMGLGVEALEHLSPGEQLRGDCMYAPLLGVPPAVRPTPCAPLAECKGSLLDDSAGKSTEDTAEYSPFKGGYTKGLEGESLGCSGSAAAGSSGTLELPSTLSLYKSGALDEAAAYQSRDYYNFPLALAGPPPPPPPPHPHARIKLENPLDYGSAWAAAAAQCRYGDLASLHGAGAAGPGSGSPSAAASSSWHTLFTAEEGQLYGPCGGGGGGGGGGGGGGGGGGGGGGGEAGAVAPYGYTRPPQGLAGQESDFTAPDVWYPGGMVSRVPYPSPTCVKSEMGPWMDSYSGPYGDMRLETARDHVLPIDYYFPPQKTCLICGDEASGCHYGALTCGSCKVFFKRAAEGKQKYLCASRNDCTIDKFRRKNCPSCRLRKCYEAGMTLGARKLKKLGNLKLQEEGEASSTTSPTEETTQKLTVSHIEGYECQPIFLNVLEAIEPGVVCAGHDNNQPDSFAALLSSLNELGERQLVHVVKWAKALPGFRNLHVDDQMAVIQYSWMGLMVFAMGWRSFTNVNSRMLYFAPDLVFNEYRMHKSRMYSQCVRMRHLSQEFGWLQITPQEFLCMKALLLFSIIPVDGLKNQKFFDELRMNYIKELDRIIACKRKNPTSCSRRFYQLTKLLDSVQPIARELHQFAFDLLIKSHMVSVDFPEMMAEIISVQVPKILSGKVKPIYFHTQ
The assay can be described thus: LNCaP Androgen Receptor Down-regulation Cell Assay (immunofluorescence end point). The assay is classed as cell-based. To be noted: LNCaP prostate carcinoma cells, compound incubation 20-22 hours, 50% reduction of the AR signal; read-out: Androgen Receptor Down-regulation Assay (a) IC50/μM. Put shortly:
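AR loss reported as IC50 from curve fits of fluorescence dose-response data, with AR immunostained and read by laser-scanning cytometry. Compound exposure was 20-22 h at 37° C in LNCaP cells grown in 5% charcoal-stripped FBS and plated overnight beforehand.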
Consider `FC(F)(F)c1ccc(C2CCN(c3ccc4nnc(C(F)(F)Cl)n4n3)C2)cc1` (centres unmarked) [Example 335], for which the DC50 was determined as 1.5 µM.
Under `FC(F)(F)c1cccc(C2CCN(c3ccc4nnc(C(F)(F)Cl)n4n3)C2)c1` (centres unmarked) [Example 336] stands 2.4 µM; under `FC(F)(Cl)c1nnc2ccc(N3CCN(c4c(Cl)cncc4Cl)CC3)nn12` [Example 339, 3-[chloro(difluoro)methyl]-6-[4-(3,5-dichloropyridin-4-yl)piperazin-1-yl][1,2,4]triazolo[4,3-b]pyridazine], 0.77 µM.
In the case of `N#Cc1ccc(CN2CCN(c3ccc4nnc(C(F)(F)Cl)n4n3)CC2)cc1` [Example 342], the DC50 was determined as 2.1 µM.
Under `N#Cc1cccc(CN2CCN(c3ccc4nnc(C(F)(F)Cl)n4n3)CC2)c1` [Example 343] stands 1.7 µM.
Under `FC(F)(Cl)c1nnc2ccc(N3CCN(Cc4cccc(Br)c4)CC3)nn12` [Example 344] stands 0.29 µM; under `Fc1cccc(CN2CCN(c3ccc4nnc(C(F)(F)Cl)n4n3)CC2)c1` [Example 345], 1.1 µM.
As for `FC(F)(F)c1cccc(CN2CCN(c3ccc4nnc(C(F)(F)Cl)n4n3)CC2)c1` [Example 346], the DC50 was found to be 8.5 µM.
Under `FC(F)(F)c1cccc(CN2CCN(c3ccc4nnc(C(F)(F)Cl)n4n3)CC2)c1` [Example 347] stands 0.97 µM; under `FC(F)(Cl)c1nnc2ccc(N3CCN(Cc4ccc(Br)cc4)CC3)nn12` [Example 348], 1 µM; under `FC(F)(Cl)c1nnc2ccc(N3CCN(CCc4ccccc4)CC3)nn12` [Example 349, 3-[chloro(difluoro)methyl]-6-[4-(2-phenylethyl)piperazin-1-yl][1,2,4]triazolo[4,3-b]pyridazine], 1.7 µM.
In the case of `CC(c1ccccc1)N1CCN(c2ccc3nnc(C(F)(F)Cl)n3n2)CC1` (centres unmarked) [Example 350, 3-[chloro(difluoro)methyl]-6-[4-(1-Phenylethyl)piperazin-1-yl][1,2,4]triazolo[4,3-b]pyridazine], the DC50 is 0.74 µM.
As to `FC(F)(F)c1cnc(N2CCCN(c3ccc4nnc(C(F)(F)Cl)n4n3)CC2)c(Cl)c1` [Example 351, 3-[chloro(difluoro)methyl]-6-[4-[3-chloro-5-(trifluoromethyl)pyridin-2-yl]-1,4-diazepan-1-yl][1,2,4]triazolo[4,3-b]pyridazine], the DC50 is 1.9 µM.
Next, `CC1CN(Cc2ccccc2)CCN1c1ccc2nnc(C(F)(F)Cl)n2n1` (centres unmarked) [Example 352, 6-(4-benzyl-2-methylpiperazin-1-yl)-3-[chloro(difluoro)methyl][1,2,4]triazolo[4,3-b]pyridazine]: 0.57 µM.
Consider `Cc1cccc(C)c1N1CCN(c2ccc3nnc(C(F)(F)Cl)n3n2)CC1` [Example 353, 3-[chloro(difluoro)methyl]-6-[4-(2,6-dimethylphenyl)piperazin-1-yl][1,2,4]triazolo[4,3-b]pyridazine], for which the DC50 came to 0.69 µM.
`FC(F)(Cl)c1nnc2ccc(N3CC4CN(Cc5ccccc5)CC4C3)nn12` (centres unmarked) [Example 354, 6-(5-benzylhexahydropyrrolo[3,4-c]pyrrol-2(1H)-yl)-3-[chloro(difluoro)methyl][1,2,4]triazolo[4,3-b]pyridazine]: the DC50 was 2.7 µM.
Under `FC(F)(Cl)c1nnc2ccc(N3CCCC(c4ccccc4)CC3)nn12` (centres unmarked) [Example 355, 3-[chloro(difluoro)methyl]-6-(4-phenylazepan-1-yl)[1,2,4]triazolo[4,3-b]pyridazine] stands 0.72 µM.
Under `FC(F)(Cl)c1nnc2ccc(N3CCN(Cc4cccs4)CC3)nn12` [Example 356, 3-[chloro(difluoro)methyl]-6-[4-(thiophen-2-ylmethyl)piperazin-1-yl][1,2,4]triazolo[4,3-b]pyridazine] stands 2.2 µM; under `FC(F)(Cl)c1nnc2ccc(N3CCN(Cc4ccsc4)CC3)nn12` [Example 357, 3-[chloro(difluoro)methyl]-6-[4-(thiophen-3-ylmethyl)piperazin-1-yl][1,2,4]triazolo[4,3-b]pyridazine], 2.1 µM; under `C[C@H]1CN(Cc2ccncc2)CCN1c1ccc2nnc(C(F)(F)F)n2n1` [Example 358, 6-[(2S)-2-methyl-4-(pyridin-4-ylmethyl)piperazin-1-yl]-3-(trifluoromethyl)[1,2,4]triazolo[4,3-b]pyridazine], 6.7 µM.
Under `C[C@H]1CN(Cc2ccccn2)CCN1c1ccc2nnc(C(F)(F)F)n2n1` [Example 359] stands 2.6 µM; under `C[C@H]1CN(Cc2cccc(Br)n2)CCN1c1ccc2nnc(C(F)(F)F)n2n1` [Example 360], 1 µM.
Consider `C[C@H]1CN(Cc2ccc(C(F)(F)F)nc2)CCN1c1ccc2nnc(C(F)(F)F)n2n1` [Example 361], for which the DC50 came out at 4.7 µM.
With `C[C@H]1CN(Cc2cncc(F)c2)CCN1c1ccc2nnc(C(F)(F)F)n2n1` [Example 366], the DC50 was more than 33 µM.
Under `FC(F)(F)c1nnc2ccc(N3CCN(Cc4cccc(Br)n4)CC3)nn12` [Example 367, 6-[4-[(6-bromopyridin-2-yl)methyl]piperazin-1-yl]-3-(trifluoromethyl)[1,2,4]triazolo[4,3-b]pyridazine] stands 4.1 µM.
In the case of `FC(F)(F)c1nnc2ccc(N3CCN(Cc4cccnc4Cl)CC3)nn12` [Example 369], the DC50 was 8.7 µM.
Next, `FC(F)(F)c1nnc2ccc(N3CCN(Cc4ccc(Br)nc4)CC3)nn12` [Example 374, 6-[4-[(6-bromopyridin-3-yl)methyl]piperazin-1-yl]-3-(trifluoromethyl)[1,2,4]triazolo[4,3-b]pyridazine]: 0.93 µM; `FC(F)(F)c1nnc2ccc(N3CCN(Cc4cccnc4Br)CC3)nn12` [Example 376]: 3 µM.
Next, `FC(F)(F)c1nnc2ccc(N3CCN(Cc4cnccc4Br)CC3)nn12` [Example 377]: 5.9 µM; `N#Cc1cc(F)c(CN2CCN(c3ccc4nnc(C(F)(F)F)n4n3)CC2)c(F)c1` [Example 380]: 4.2 µM.
Next, `Fc1cccc(CN2CCN(c3ccc4nnc(C(F)(F)F)n4n3)CC2)c1F` [Example 381]: 2.1 µM; `Fc1ccc(CN2CCN(c3ccc4nnc(C(F)(F)F)n4n3)CC2)c(F)c1` [Example 382]: 1.8 µM; `Fc1cccc(F)c1CN1CCN(c2ccc3nnc(C(F)(F)F)n3n2)CC1` [Example 384]: 2.9 µM.
For the compound `COc1ccc(CN2CCN(c3ccc4nnc(C(F)(F)F)n4n3)CC2)c(F)c1` [Example 385], the DC50 worked out at 2.1 µM.
Turning to `Fc1ccc(F)c(CN2CCN(c3ccc4nnc(C(F)(F)F)n4n3)CC2)c1` [Example 386], the DC50 was determined as 2.4 µM.
Next, `COc1ccc(CN2CCN(c3ccc4nnc(C(F)(F)F)n4n3)CC2)cc1F` [Example 388]: 1.6 µM.
Under `N#Cc1ccc(CN2CCN(c3ccc4nnc(C(F)(F)F)n4n3)CC2)c(F)c1` [Example 389] stands 1.5 µM.
Under `COc1ccc(F)c(CN2CCN(c3ccc4nnc(C(F)(F)F)n4n3)CC2)c1` [Example 390] stands 1.7 µM; under `Fc1cc(F)cc(CN2CCN(c3ccc4nnc(C(F)(F)F)n4n3)CC2)c1` [Example 391], 2.7 µM; under `O=S(=O)(c1ccc2ccccc2c1)N1CCN(c2ccc3nnc(C(F)(F)F)n3n2)CC1` [Example 394, 6-[4-(naphthalen-2-ylsulfonyl)piperazin-1-yl]-3-(trifluoromethyl)[1,2,4]triazolo[4,3-b]pyridazine], 5.6 µM.
Turning to `COc1cccc(S(=O)(=O)N2CCN(c3ccc4nnc(C(F)(F)F)n4n3)CC2)c1` [Example 396], the DC50 came out at 1.8 µM.
Next, `COc1ccccc1S(=O)(=O)N1CCN(c2ccc3nnc(C(F)(F)F)n3n2)CC1` [Example 397]: 3.9 µM.
For `COc1ccc(S(=O)(=O)N2CCN(c3ccc4nnc(C(F)(F)F)n4n3)CC2)cc1` [Example 398], the DC50 came to 1.9 µM.
Next, `COc1ccc(OC)c(S(=O)(=O)N2CCN(c3ccc4nnc(C(F)(F)F)n4n3)CC2)c1` [Example 399]: 3.7 µM; `N#Cc1ccccc1S(=O)(=O)N1CCN(c2ccc3nnc(C(F)(F)F)n3n2)CC1` [Example 403]: 4.8 µM; `COc1ccc(S(=O)(=O)N2CCN(c3ccc4nnc(C(F)(F)F)n4n3)CC2)c(OC)c1` [Example 404]: 2.7 µM.
Under `O=S(=O)(c1ccc(F)cc1)N1CCN(c2ccc3nnc(C(F)(F)F)n3n2)CC1` [Example 405] stands 3 µM.
